Where a name gives a salt, the structure may show the parent alone.
Each compound was assayed against T1, HCV polymerase (Hepatitis C virus genotype 1b, UniProt P26663) (assay: biochemical). Conditions: not given.
T1 construct: a region encoding NS5B (J Virol 1991 March, 65(3), 1105-13, 544 amino acids after deletion of 47 amino acids on the C-terminal); 6xHis (C); made in house; host or cells: Escherichia coli
Design: species or system HCV BK strain
Summary of the method: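 Recombinant HCV BK-strain NS5B (C-terminal 47 aa deleted, His6-tagged, E. coli), 0.5 μg/ml, run with 5 μg/ml in vitro-transcribed RNA template (polyU/3′X), ATP/GTP/CTP 50 μM, UTP 2 μM plus [3H]UTP, pH 7.5, 25° C, 90 min. TCA-precipitated RNA counted by scintillation; IC50 from activity with vs without compound.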

T1 sequence (P26663 2420-2963): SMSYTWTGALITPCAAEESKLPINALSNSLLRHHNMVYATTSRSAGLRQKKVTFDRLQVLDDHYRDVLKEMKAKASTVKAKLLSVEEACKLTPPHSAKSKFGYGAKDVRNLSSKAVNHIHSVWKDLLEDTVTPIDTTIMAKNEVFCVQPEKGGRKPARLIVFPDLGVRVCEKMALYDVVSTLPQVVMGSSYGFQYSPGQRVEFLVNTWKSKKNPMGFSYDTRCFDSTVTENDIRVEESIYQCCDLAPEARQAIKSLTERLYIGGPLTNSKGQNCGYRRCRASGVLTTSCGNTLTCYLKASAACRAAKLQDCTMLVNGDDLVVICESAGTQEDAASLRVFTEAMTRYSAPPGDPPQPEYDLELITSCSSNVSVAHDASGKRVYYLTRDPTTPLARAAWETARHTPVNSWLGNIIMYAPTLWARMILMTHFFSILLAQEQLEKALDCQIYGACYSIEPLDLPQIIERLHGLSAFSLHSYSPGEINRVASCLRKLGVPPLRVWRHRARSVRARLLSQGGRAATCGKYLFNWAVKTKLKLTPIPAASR

Structure (SMILES)	IC50 [nM]
CCC1COCCN1CCN1CCn2c(c(C3CCCCC3)c3ccc(C(=O)O)cc32)-c2ccccc21 (stereo not drawn) [Example 1-257, 13-cyclohexyl-5-[2-(3-ethylmorpholin-4-yl)ethyl]-6,7-dihydro-5H-benzo[5,6][1,4]diazepino[7,1-a]indole-10-carboxylic acid dihydrochloride]	< 100
CN(C)CCCN1CCn2c(c(C3CCCCC3)c3ccc(C(=O)O)cc32)-c2ccccc21 [Example 1-148, 13-cyclohexyl-5-(3-dimethylaminopropyl)-6,7-dihydro-5H-benzo[5,6][1,4]diazepino[7,1-a]indole-10-carboxylic acid dihydrochloride]	< 100
Cc1cc(COc2ccc3c(c2)N(CC[N+](C)(C)Cc2cc(C)on2)CCn2c-3c(C3CCCCC3)c3ccc(C(=O)O)cc32)no1 [Example 1-344, N-{2-[10-carboxy-13-cyclohexyl-3-(5-methylisoxazol-3-ylmethoxy)-6,7-dihydro-benzo[5,6][1,4]diazepino[7,1-a]indol-5-yl]ethyl}-N,N-dimethyl-N-(5-methylisoxazol-3-ylmethyl)ammonium chloride monohydrochloride]	< 100
CN1CCC(NC(=O)c2ccc3c(C4CCCCC4)c4n(c3c2)CCOc2ccccc2-4)(C(=O)O)CC1 [Example 2-182, 4-[(12-cyclohexyl-6,7-dihydro-5-oxa-7a-azadibenzo[a,e]azulene-9-carbonyl)amino]-1-methylpiperidine-4-carboxylic acid]	< 100
O=C(Nc1ccc(OCc2ccccc2)cc1)c1ccc2c(C3CCCCC3)c3n(c2c1)CCOc1ccccc1-3 [Example 2-179, N-(4-benzyloxyphenyl)-12-cyclohexyl-6,7-dihydro-5-oxa-7a-azadibenzo[a,e]azulene-9-carboxamide]	100 to 1000
O=C(O)c1ccc2c(C3CCCCC3)c3n(c2c1)CCN(Cc1ccccc1)c1ccccc1-3 [Example 1-22, 5-benzyl-13-cyclohexyl-6,7-dihydro-5H-benzo[5,6][1,4]diazepino[7,1-a]indole-10-carboxylic acid]	< 100
COc1ccc2c(c1)OCCn1c-2c(C2CCCCC2)c2ccc(C(=O)NC(C)(C)c3nc4cccnc4[nH]3)cc21 [Example 2-394, N-[1-(3H-imidazo[4,5-b]pyridin-2-yl)-1-methylethyl]-12-cyclohexyl-3-methoxy-6,7-dihydro-5-oxa-7a-azadibenzo[a,e]azulene-9-carboxamide]	< 100
COc1ccc2c(c1)OCCn1c-2c(C2CCCCC2)c2ccc(C(=O)NC3(C(=O)Nc4ccc5oc(=O)ccc5c4)CCC3)cc21 [Example 2-541, N-[1-(2-oxo-2H-chromen-6-ylcarbamoyl)cyclobutyl]-12-cyclohexyl-3-methoxy-6,7-dihydro-5-oxa-7a-azadibenzo[a,e]azulene-9-carboxamide]	< 100
CCN1CCN(C(=O)CN2CCn3c(c(C4CCCCC4)c4ccc(C(=O)NC(C)=O)cc43)-c3ccccc32)CC1 [Example 1-102, N-acetyl-13-cyclohexyl-5-[2-(4-ethylpiperazin-1-yl)-2-oxoethyl]-6,7-dihydro-5H-benzo[5,6][1,4]diazepino[7,1-a]indole-10-carboxamide]	< 100
COCCOc1cc2[nH]c(C3(NC(=O)c4ccc5c(C6CCCCC6)c6n(c5c4)CCOc4cc(OC)ccc4-6)CCC3)nc2cc1C(=O)O [Example 2-437, 2-{1-[(12-cyclohexyl-3-methoxy-6,7-dihydro-5-oxa-7a-azadibenzo[a,e]azulene-9-carbonyl)amino]cyclobutyl}-6-(2-methoxyethoxy)-1H-benzimidazole-5-carboxylic acid]	< 100
COc1cccc2c1OCCn1c-2c(C2CCCCC2)c2ccc(C(=O)O)cc21 [Example 2-475, 12-cyclohexyl-4-methoxy-6,7-dihydro-5-oxa-7a-azadibenzo[a,e]azulene-9-carboxylic acid]	< 100
CCOc1ccc2c(c1)N(C)CCn1c-2c(C2CCCCC2)c2ccc(C(=O)NC3(C(=O)Nc4ccc(/C=C/C(=O)O)c(OC)c4)CCC3)cc21 [Example 1-622, (E)-3-[4-({1-[(13-cyclohexyl-3-ethoxy-5-methyl-6,7-dihydro-5H-benzo[5,6][1,4]diazepino[7,1-a]indole-10-carbonyl)amino]cyclobutanecarbonyl}amino)-2-methoxyphenyl]acrylic acid]	< 100
CCOc1ccc2c(c1)OCCn1c-2c(C2CCCCC2)c2ccc(C(=O)NC3(C(=O)Nc4ccc(/C=C/C(=O)O)cc4OC)CCC3)cc21 [Example 2-552, (E)-3-[4-({1-[(12-cyclohexyl-3-ethoxy-6,7-dihydro-5-oxa-7a-azadibenzo[a,e]azulene-9-carbonyl)amino]cyclobutanecarbonyl}amino)-3-methoxyphenyl]acrylic acid]	< 100
CN(C)CC(=O)N(C)c1ccc(N2CCOCC2)c(COc2ccc3c(c2)OCCn2c-3c(C3CCCCC3)c3ccc(C(=O)O)cc32)c1 [Example 2-23, 12-cyclohexyl-3-(5-[N-(2-dimethylaminoacetyl)-N-methylamino]-2-(morpholin-4-yl)benzyloxy]-6,7-dihydro-5-oxa-7a-azadibenzo[a,e]azulene-9-carboxylic acid dihydrochloride]	< 100
CC(C)(NC(=O)c1ccc2c(C3CCCCC3)c3n(c2c1)CCOc1ccccc1-3)C(=O)Nc1cccc(C(=O)O)c1 [Example 2-201, 3-{2-[(12-cyclohexyl-6,7-dihydro-5-oxa-7a-azadibenzo[a,e]azulene-9-carbonyl)amino]-2-methylpropionylamino}benzoic acid]	< 100
CCN(C(=O)CN1CCCCC1)c1cccc2c1OCCn1c-2c(C2CCCCC2)c2ccc(C(=O)O)cc21 [Example 2-178, 12-cyclohexyl-4-{N-ethyl-N-[2-(piperidin-1-yl)acetyl]amino}-6,7-dihydro-5-oxa-7a-azadibenzo[a,e]azulene-9-carboxylic acid monohydrochloride]	< 100
COCC1CCCCN(CCN2CCn3c(c(C4CCCCC4)c4ccc(C(=O)O)cc43)-c3ccc(C)cc32)C1 (stereo not drawn) [Example 1-551, 13-cyclohexyl-5-[2-(3-methoxymethylazepan-1-yl)ethyl]-3-methyl-6,7-dihydro-5H-benzo[5,6][1,4]diazepino[7,1-a]indole-10-carboxylic acid dihydrochloride]	< 100
COC(=O)Cn1c(C(C)(C)NC(=O)c2ccc3c(C4CCCCC4)c4n(c3c2)CCOc2ccccc2-4)nc(C)c1C [Example 2-264, methyl (2-{1-[(12-cyclohexyl-6,7-dihydro-5-oxa-7a-azadibenzo[a,e]azulene-9-carbonyl)amino]-1-methylethyl}-4,5-dimethylimidazol-1-yl)acetate]	< 100
O=C(O)c1ccc2c(C3CCCCC3)c3n(c2c1)CCN(CCN1CC=CCC1)c1ccccc1-3 [Example 1-205, 13-cyclohexyl-5-[2-(3,6-dihydro-2H-pyridin-1-yl)ethyl]-6,7-dihydro-5H-benzo[5,6][1,4]diazepino[7,1-a]indole-10-carboxylic acid]	< 100
CC(C)N1CCn2c(c(C3CCCCC3)c3ccc(C(=O)O)cc32)-c2ccccc21 [Example 1-23, 13-cyclohexyl-5-isopropyl-6,7-dihydro-5H-benzo[5,6][1,4]diazepino[7,1-a]indole-10-carboxylic acid monohydrochloride]	< 100
O=C(O)c1ccc2c(C3CCCCC3)c3n(c2c1)CCOc1c-3cccc1N(CCO)CCN1CCCCC1 [Example 2-261, 12-cyclohexyl-4-{N-(2-hydroxyethyl)-N-[2-(piperidin-1-yl)ethyl]amino}-6,7-dihydro-5-oxa-7a-azadibenzo[a,e]azulene-9-carboxylic acid dihydrochloride]	< 100
COC(=O)N1CCN(CCN2CCn3c(c(C4CCCCC4)c4ccc(C(=O)O)cc43)-c3ccccc32)CC1 [Example 1-104, 13-cyclohexyl-5-[2-(4-methoxycarbonylpiperazin-1-yl)ethyl]-6,7-dihydro-5H-benzo[5,6][1,4]diazepino[7,1-a]indole-10-carboxylic acid dihydrochloride]	< 100
O=C(O)c1ccc2c(C3CCCCC3)c3n(c2c1)CCN(CC(=O)N1CCC(C(F)(F)F)CC1)c1ccccc1-3 [Example 1-158, 13-cyclohexyl-5-[2-oxo-2-(4-trifluoromethylpiperidin-1-yl)ethyl]-6,7-dihydro-5H-benzo[5,6][1,4]diazepino[7,1-a]indole-10-carboxylic acid monohydrochloride]	< 100
Cc1ccc2c(c1)N(C1CCN(C)CC1)CCn1c-2c(C2CCCCC2)c2ccc(C(=O)O)cc21 [Example 1-564, 13-cyclohexyl-3-methyl-5-(1-methylpiperidin-4-yl)-6,7-dihydro-5H-benzo[5,6][1,4]diazepino[7,1-a]indole-10-carboxylic acid dihydrochloride]	< 100
CCOC1CCCN(CCN2CCn3c(c(C4CCCCC4)c4ccc(C(=O)O)cc43)-c3ccccc32)C1 (stereo not drawn) [Example 1-324, 13-cyclohexyl-5-[2-(3-ethoxypiperidin-1-yl)ethyl]-6,7-dihydro-5H-benzo[5,6][1,4]diazepino[7,1-a]indole-10-carboxylic acid monohydrochloride]	< 100
COC(=O)C(Cc1ccc(C(F)(F)F)cc1)NC(=O)c1ccc2c(C3CCCCC3)c3n(c2c1)CCOc1cc(OC)ccc1-3 (stereo not drawn) [Example 2-374, methyl 2-[(12-cyclohexyl-3-methoxy-6,7-dihydro-5-oxa-7a-azadibenzo[a,e]azulene-9-carbonyl)amino]-3-(4-trifluoromethylphenyl)propionate]	< 100

Same assay, conditions: 25° C., 90 min; [5,6-3H]UTP incorporation into RNA; read-out: HCV polymerase inhibitory activity IC50

Structure (SMILES)	IC50 [nM]
CCCC1CCCN(CCN2CCn3c(c(C4CCCCC4)c4ccc(C(=O)O)cc43)-c3ccc(C)cc32)C1 (stereo not drawn) [Example 1-268, 13-cyclohexyl-3-methyl-5-[2-(3-propylpiperidin-1-yl)ethyl]-6,7-dihydro-5H-benzo[5,6][1,4]diazepino[7,1-a]indole-10-carboxylic acid dihydrochloride]	< 100

Source: US20070049593A1 (priority 2004, published 2007)
